Test results taken from patent US4999344A, “Phosphatidyl treatment of rapidly proliferating cells” (priority 1988, dated 1991).

Assays:
[1] = tested on: MCF-7 wild-type (WT) breast cancer cells; test: TCA-precipitable 2-[3H]methylthymidine incorporation; type: cell-based; conditions: thymidine incorporation
Protocol: In order to further assess cell viability between wild-type (MCF-7 wild-type cell line) (WT) and multi-drug resistant MCF-7 ADR^R (MDR^R) breast cancer cells, tests involving TCA-precipitable 2-[^3 H]methylthymidine incorporation were employed. MCF-7 WT and ADR^R cells were plated (Day 1) at 1500 cells/well in 96-well cluster plates. On Day 2, phospholipid preparations were added to triplicate cultures. On Day 7, 2-[^3 H]methylthymidine was added and the cells harvested as described (Jett et al., Cancer Res. (1985) 45:4810-4815), using 5% TCA as the wash buffer. Results were expressed as the geometric mean of triplicate cultures.

[2] = tested on: multi-drug resistant MCF-7 ADR^R breast cancer cells; test: as above; type: cell-based; conditions: thymidine incorporation
Protocol: MCF-7 cells were continuously exposed to increasing concentrations of adriamycin resulting in multidrug-resistance (mdr) as a stable genetic trait (Batist et al., J. Biol. Chem. (1986) 261:[…]). The mdr cells are referred to as ADR^R cells. MCF-7 WT (wild-type) and ADR^R cells were plated at 1000 cells/well (9.6 cm^2) in RPMI 1640 supplemented with 10% fetal bovine serum (day 1). Plant PI (0.5-150 μM) in the form of multilamellar vesicles (Jett and Alving, in Methods in Enzymology 141B (eds. Conn. P.M. and Means A.R.) 459-466, Academic Press, Orlando, FL 1987) or adriamycin (1-2000 nM) was added to the cultures on day 2. At day 8-10, the fluid was removed and clones were fixed, stained and counted. Colonies were scored positive if >40 cells/clone Adriamycin (10-500 nM) or plant PI (20-200 μM) was added at the time of cell plating. At day 8-10, the colony forming units of granulocytes and monocytes (CFV-GM) were counted. The results were the average of triplicate experiments.
In order to further assess cell viability between wild-type (MCF-7 wild-type cell line) (WT) and multi-drug resistant MCF-7 ADR^R (MDR^R) breast cancer cells, tests involving TCA-precipitable 2-[^3 H]methylthymidine incorporation were employed. MCF-7 WT and ADR^R cells were plated (Day 1) at 1500 cells/well in 96-well cluster plates. […] Results were expressed as the geometric mean of triplicate cultures.

SK-N-MC [3] = test: Liposomal uptake by normal and tumor cells; type: cell-based, human; conditions: tumor cells SK-N-MC
Protocol: (§1) Thymidine uptake is a method of assessing cell viability of cultured cells, and decreased thymidine uptake occurs as a result of cytotoxicity caused by contact with toxic substances. , MRC-5 normal embryonic lung fibroblasts; , W1-38SV/40 transformed embryonic human lung fibroblasts; .quadrature..quadrature., SK-N-MC human glioblastoma cells and , N4TG1 mouse neuroblastoma cells.
(§2) Cells were treated with liposomes containing synthetic preparations of PI (left frames) or PC (right frames) containing palmitic acid in the sn-1 position and either [^14 C]linoleic acid in the sn-2 position (FIGS. 5 and 5a) or [^14 C]arachidonic acid in the sn-2 position (FIGS. 6 and 6a) or [^14 C]oleic acid in the sn-2 position (FIGS. 7 and 7a). The liposomes were comprised of the indicated phospholipids (PI or PC) and cholesterol in a molar ratio of 2:1.
(§3) The data in Table 5 was obtained concomitantly with the toxicity studies in FIGS. 5-7a.

WI-38/SV-40 [4] = test: Liposomal uptake by normal and tumor cells; type: cell-based, human
Protocol: as §1, §2, §3

[5] = tested on: N4TG1 neuroblastoma cells; test: Fate of liposomal PI after incubation with N4TG1 neuroblastoma cells; type: in vitro ADME, mouse
Source text: Lipids were dried and resuspended exactly as described previously in the Biochem. Biophys. Res. Commun. article. In the use of ([^14 C]linoleoyl)PI, ([^14 C]oleoyl)PI, or ([^14 C]arachidonoyl)PI the phospholipids were used in a 2:1 molar combination with cholesterol. Cholesterol was included in the liposomes in order to minimize the net transfer of cholesterol into or out of the cells. ([^3 H]myo-Inositol)PI was used as a tracer (1%) with bovine liver PI as the bulk phospholipid carrier for forming liposomes. [^3 H]Linoleic acid was used as a tracer (4%) in liposomes containing linoleic acid:PI (yeast or animal): cholesterol, 2:1. […]
In order to extract lipids, methanol and chloroform were added to cell homogenates to obtain a single phase of CHCl3 :CH3 OH:H2 O (1:2:1 8, v/v) containing 0.1M HCl, according to Bligh and Dyer in Can. […] The lipid compositions of the cell extracts were determined by thin layer chromatography on silica gel precoated sheets (E. M. Reagents; E. Merck, FRG) using the following solvent systems: (a) chloroform:methanol: acetic acid:water, 25:15:4:2 (v/v) (used for phospholipid separation): (b) 1-propanol:4.3M ammonia containing 10 mM EDTA, 65:35 (v/v) (used for PIP and PIP2 separations); and (c) chloroform:acetone, 1:1 (v/v) (used for DG and fatty acid separations). […]

[6] = Sedimentation of liposomes by low speed / differential centrifugation; type: physicochemical; conditions: label used as liposome marker
Source text: In both FIGS. 4a and 4b, pellets 1, 2, and 3 were obtained by differential centrifugation.

HT-144 [7] = test: LD50 to tumor cells of various preparations of PI; type: cell-based; conditions: Homo sapiens
Protocol: (§4) [methyl-^3 H]Thymidine (New England Nuclear) incorporation was carried out using 96-well plates (Costar). Thymidine incorporation was used as an assay for cell viability, since in the previous studies described in the Biochem. Biophys. Res. Commun. (1983) article, other methods of assessing cell viability, including microscopic evaluation in the presence of trypan blue, gave identical results. Fifty μl of cell suspension (4×10^5 cells/ml) were added to duplicate wells. Approximately 18 hours later 25 μl of the PI-containing liposomes were added to give a final concentration of phospholipid of 200 μM (approximately, 14 nmol/2-3×10^4 cells). At various intervals after PI addition [^3 H]thymidine, 1 μCi/well was added and incubated with the cells for 3 hours. Cells were collected on glass fiber filter mats by a mechanical cell harvester (Skatron, Inc.) using a combination of scraping and fluid turbulence (saline). Filters were dried and the material was solubilized by incubation overnight with NCS tissue solubilizer and counted in the presence of Spectrafluor (Amersham).
(§5) Res Commun. article cited above. The LD50 values for some of the cell lines reported in the Biochem. Biophys. Res. Commun. article are compared with LD50 values obtained using Avanti plant PI or synthetic ([14 C]linoleoyl)PI.

N4TG1 = test: Liposomal uptake by normal and tumor cells; type: cell-based, mouse; conditions: tumor cells N4TG1
Protocol: as §1, §2, §3

HT-144 [8] = test: Liposomal uptake by normal and tumor cells; type: cell-based, human; conditions: tumor cells HT-144
Protocol: as §2, §3

[9] = tested on: N4TG1 neuroblastoma cells; test: Thymidine uptake (cell viability) by N4TG1 neuroblastoma cells incubated with liposomes; type: cell-based, mouse; conditions: FIG. 1
Protocol: Plant PI(S) is from the Sigma Chemical Company and plant PI(A) is from Avanti Polar Lipids, Inc. and ([^14 C]linoleoyl)PI is the synthetic PI.
FIGS. 3a and 3b show the effect of increasing the molar fraction of synthetic PI or animal PI in liposomes on (a) thymidine uptake (FIG. 3a) and myo-inositol uptake (FIG. 3b) by N4TG1 neuroblastoma cells, .circle. 100 μm PI, 200 μm PI, 300 μm PI. Cells were incubated with liposomes made up of the various combinations indicated (mol %) of ([^14 C]linoleoyl)PI and animal PI.
FIGS. 9a, b, c, and d show the effect of inhibitors on PI toxicity to tumor cells.
Lipids were dried and resuspended exactly as described previously in the Biochem. Biophys. Res. Commun. article. In the use of ([^14 C]linoleoyl)PI, ([^14 C]oleoyl)PI, or ([^14 C]arachidonoyl)PI the phospholipids were used in a 2:1 molar combination with cholesterol. Cholesterol was included in the liposomes in order to minimize the net transfer of cholesterol into or out of the cells. ([^3 H]myo-Inositol)PI was used as a tracer (1%) with bovine liver PI as the bulk phospholipid carrier for forming liposomes. [^3 H]Linoleic acid was used as a tracer (4%) in liposomes containing linoleic acid:PI (yeast or animal): cholesterol, 2:1. It was shown that it is not necessary to have cholesterol present to observe the cytotoxicity.
The N4TG1 mouse neuroblastoma cell line was obtained from Dr. Peter Chiang (Walter Reed Army Institute of Research) and cultured using Dulbecco's minimal essential medium (MEM: Grand Island Biological Co.) containing 10% fetal bovine serum. Cells were routinely started from frozen cultures every 6 weeks in order to assure that the cells used were from low passage cultures.
as §4
In FIGS. 1 and 2 the curves were quite reproducible and representative experiments are shown. Because of fluctuations (<5%) in control values, the data were "normalized" by comparison with daily controls and expressed as "percentage of control in absence of PI." Typical values for uptake of [^3 H]thymidine by controls are shown in the inserts in FIGS. 1 and 2.

N4TG1 Neuroblastoma = test: LD50 to tumor cells of various preparations of PI; type: cell-based; conditions: Mus musculus
Source text: as §1, with “FIGS. 5 through 7 a show comparisons of the effects of liposomes having varous phospholipids containing defined fatty acids on [^3 H-methyl]-thymidine uptake. Thymidine” for “Thymidine”
as §4, §5

SK-N-MC [10] = test: LD50 to tumor cells of various preparations of PI; type: cell-based; conditions: Homo sapiens
Source text: as §1, with “FIGS. 5 through 7 a show comparisons of the effects of liposomes having varous phospholipids containing defined fatty acids on [^3 H-methyl]-thymidine uptake. Thymidine” for “Thymidine”
as §4, §5

WI-38/SV-40 [11] = test: LD50 to tumor cells of various preparations of PI; type: cell-based; conditions: Homo sapiens
Source text: as §1, with “FIGS. 5 through 7 a show comparisons of the effects of liposomes having varous phospholipids containing defined fatty acids on [^3 H-methyl]-thymidine uptake. Thymidine” for “Thymidine”
as §4, §5

MRC-5 = test: Liposomal uptake by normal and tumor cells; type: cell-based; conditions: normal cells MRC-5
Protocol: as §1, §2, §3

Human marrow CFV-GM = test: Colony forming units of granulocytes and monocytes; type: cell-based; conditions: Monocyte, 192 h
[12] = tested on: tumor cells from cultured cell lines; conditions: earlier articles; cited from earlier work

SMILES: CCCCC/C=C\C/C=C\CCCCCCCC(=O)O[C@H](COC(=O)CCCCCCCCCCCCCCC)COP(=O)([O-])OCC[N+](C)(C)C
- toxicity [1]: not as toxic as synthetic phosphatidylinositol containing the identical fatty acids
- toxicity [2]: not as toxic as synthetic phosphatidylinositol containing the identical fatty acids

SMILES: CCCCC/C=C\C/C=C\CCCCCCC[14C](=O)O[C@H](COC(=O)CCCCCCCCCCCCCCC)COP(=O)(O)O[C@@H]1[C@H](O)[C@H](O)[C@@H](O)[C@H](O)[C@H]1O [([^14 C]linoleoyl)PI, sn-3-phosphatidyl(1-palmitoyl-2-[1'-^14 C]linoleoyl)myo-inositol]
- Liposomal uptake (SK-N-MC [3]): 0.45 nMoles of phospholipid/1 × 10^5 cells
- Liposomal uptake (WI-38/SV-40 [4]): 0.39 nMoles of phospholipid/1 × 10^5 cells
- DG (diglycerides) [5]: 0.8
- liposomes sedimented by low speed centrifugation [6]: 8%
- liposomes which did not sediment [6]: 92%
- IC50 (HT-144 [7]; 3 hours): 25 µM
- IC50 (HT-144 [7]; 8 hours): 25 µM
- Liposomal uptake (N4TG1): 0.39 nMoles of phospholipid/1 × 10^5 cells
- Liposomal uptake (HT-144 [8]): 0.39 nMoles of phospholipid/1 × 10^5 cells
- effectiveness vs plant PI from Sigma [9]: slightly more effective
- IC50 (N4TG1 Neuroblastoma; 3 hours): 25 µM
- IC50 (N4TG1 Neuroblastoma; 8 hours): 25 µM
- IC50 (SK-N-MC [10]; 3 hours): 39 µM
- IC50 (SK-N-MC [10]; 8 hours): 38 µM
- IC50 (WI-38/SV-40 [11]; 3 hours): 65 µM
- IC50 (WI-38/SV-40 [11]; 8 hours): 35 µM
- Liposomal uptake (MRC-5): 0.09 nMoles of phospholipid/1 × 10^5 cells

SMILES: COc1cccc2c1C(=O)c1c(O)c3c(c(O)c1C2=O)C[C@@](O)(C(=O)CO)C[C@@H]3O[C@H]1C[C@H](N)[C@H](O)[C@H](C)O1 [adriamycin]
- IC50 (Human marrow CFV-GM): 0.08 µM

SMILES: CCCCCCCC/C=C\CCCCCCCC(=O)O[C@H]1CC[C@@]2(C)C(=CC[C@H]3[C@@H]4CC[C@H]([C@H](C)CCCC(C)C)[C@@]4(C)CC[C@@H]32)C1 [cholesteryl oleate]
- anti-tumor effect / selective killing of tumor cells [12]: reduced the anti-tumor effect

SMILES: CCCCCCCCCCCCCCCCCC(=O)OCC(COP(=O)([O-])OCC[N+](C)(C)C)OC(=O)CCCCCCCCCCCCCCCCC (centres unmarked) [distearoyl phosphatidyl choline, reference compound]
- toxicity [1]: no toxicity
- toxicity [2]: no toxicity
